Source: patent US11260056B2, “Diaminopyrimidine P2X3 and P2X2/3 receptor modulators for use in the treatment of cough” (Afferent Pharmaceuticals, Inc., priority 2015, dated 2022)

How the values were obtained:
Format in all cases: in vivo, human
[1] = system: treatment-resistant chronic cough patients; experiment: Double-blind randomized placebo-controlled crossover trial in idiopathic/treatment-resistant chronic cough; conditions: 600 mg bd
Method: Thus, the inventors explored the role of P2X3 receptors in the sensitization of vagal pathways mediating the cough reflex leading to chronic cough (CC). A study was performed to investigate the efficacy of oral administration of Compound 16 in reducing daytime cough in idiopathic/treatment-resistant chronic cough.
In this study, a double-blind randomized placebo-controlled crossover trial, 24 subjects (19 women, mean age 55 yrs) were randomized into a double blind, placebo-controlled, 2-period, crossover study, of Compound 16, 600 mg bd. Cough was assessed using an ambulatory sound monitoring system at baseline and after 2 weeks of treatment; primary endpoint, daytime objective cough frequency (coughs/hr) (VitaloJAK™); secondary endpoints, cough severity and urge to cough (UTC) visual analogue scales (VAS), global ratings of change and cough quality of life questionnaire (CQLQ).

[2] = Phase 1/Phase 2 clinical studies: safety, tolerability and pharmacokinetics after oral administration
Method: Compound 16 has progressed to completion of 6 Phase 1 studies and 5 Phase 2 studies, with several studies in progress or soon to commence, and over 400 subjects dosed at least once with Compound 16. […] Studies in normal healthy volunteers have explored safety, tolerability and pharmacokinetics of Compound 16 following oral administration of doses from 10 mg to 1800 mg for up to 3 weeks. […] Plasma half-life falls in the range of 7-9 h, with steady state for BID dosing achieved after 3 doses.

[3] = system: chronic cough patients; experiment: Phase 2b dose-escalation crossover study in chronic cough patients
Method: Cough frequency was measured objectively utilizing a cough recording device, with periodic measurements following Compound 16 treatment compared to a baseline recording.
The 29-patient randomized, double-blind, placebo controlled, Phase 2b crossover study was conducted at 10 clinical sites in the U.S. Patients were randomized to either Compound 16 or placebo arms. Those in the treatment group received Compound 16 50 mg, followed by a titration up to 100 mg, 150 mg and 200 mg, with each dose given twice daily for four days. Treatment period one was followed by a 3-5 day washout period. Patients were then crossed over to the alternate arm of the study and treated with either Compound 16 or placebo for 16 more days.

## COc1cc(C(C)C)c(Oc2cnc(N)nc2N)cc1S(N)(=O)=O [Compound 16, 5-(2,4-Diamino-pyrimidin-5-yloxy)-4-isopropyl-2-methoxy-benzenesulfonamide]
[1]; 2 weeks, (−2 to −17), p=0.018
  CQLQ (cough quality of life questionnaire), mean difference vs. placebo: −9
[1]; 2 weeks, (−2 to −41), p=0.035
  UTC (urge to cough) VAS, mean difference vs. placebo: −21 mm
[1]; 2 weeks, (−10 to −42), p=0.003
  cough severity VAS, mean difference vs. placebo: −26 mm
[1]; after 2 weeks of treatment, 95% CI −50 to −88, p<0.001
  daytime coughs/hr, mean difference vs. placebo: −75%
[1]; compared to 2/22 treated with placebo
  patients who rated an improved cough: 13/24
[1]; patients with refractory chronic cough
  reduction in objective daytime cough counts: 75%
[2]; human, oral BID dosing
  steady state for BID dosing achieved after: 3 doses
[2]; human, based on % dose recovered in urine
  oral bioavailability: appears to be high
[2]; over 400 subjects dosed at least once, 10 mg to 1800 mg
  Clinical safety: excellent
[2]; patients and healthy volunteers, dose-dependent, notable at higher dose levels
  adverse events (AEs): limited to oropharyngeal findings (hypogeusia)
[2]; plasma, human, oral, immediate release formulation
  half-life: 7 to 9 h
[3]; 50 mg dose versus 600 mg twice daily in the first study
  incidence of decreased taste acuity: much less at the 50 mg dose
[3]; 50-200 mg twice daily
  tolerability: generally well tolerated
[3]; at any dose, 29 patients
  patients who discontinued treatment due to the taste effect: Only one patient discontinued treatment
